The values below come from article PMC6695788, “Screening and Isolating Major Aldose Reductase Inhibitors from the Seeds of Evening Primrose (Oenothera biennis)” (Molecules, 2019).

Each structure is given as a SMILES string. Where two headings read alike, the source gives them in different places.

In assay [1] the target is T1, human recombinant aldose reductase (Homo sapiens, UniProt P15121).
T1 construct: purchased Wako Pure Chemical Industries Ltd. (Osaka, Japan)
The assay is described as follows: Affinity-based ultrafiltration-HPLC screening. Format: binding. The conditions noted are these: ESME incubated with AR 6.9 µM, 37 °C, 30 min, ultrafiltrate analysed. The method, then:
The ultrafiltrate was collected for further HPLC analysis.
HPLC analysis was performed using an Agilent 1100 HPLC instrument (Agilent, Santa Clara, CA, USA) equipped with an Eclipse Plus C18 column (150 mm length, 4.6 mm i.d., and 5 µm particle size; Agilent, Santa Clara, CA, USA). The temperature of the column oven was set at 30 °C and the injection volumes of the samples were 10 µL.

For assay [2], the target named is T2, rat lens aldose reductase (RLAR) (Rattus norvegicus, UniProt P07943).
T2 construct: the supernatant that retained the RLAR was collected for further tests; from tissue; host or cells: eye lens of Sprague-Dawley rats
As to the kind of experiment: Rat lens aldose reductase (RLAR) inhibitory assay. Format: biochemical. As to conditions: mean ± SD (n = 3); for inhibition at 10 µg/mL: sample concentration 10 μg/mL. The method, then:
To extract the RLAR, the eye lens removed from the rats were first homogenized with sodium phosphate buffer (0.1 M, pH 6.2). […] Finally, the supernatant that retained the RLAR was collected for further tests. […] The inhibitory activities of the samples can be calculated using Equation (1):(1) Inhibition (%)=(1−ΔAsample−ΔAblank/ΔAcontrol−ΔAblank)×100% where ΔAcontrol is the absorbance change in 3 min of the tested mixture without the sample; ΔAblank is the absorbance change in 3 min of the tested mixture without RLAR; and ΔAsample is the absorbance change in 3 min of the tested mixture. The IC50 values of the active samples were also calculated and listed, where IC50 indicates the concentration of the tested sample required to consume half of the NADPH.

For `Oc1cc(O)c2c(c1)O[C@H](c1ccc(O)c(O)c1)[C@@H](O)[C@@H]2c1c(O)cc(O)c2c1O[C@H](c1ccc(O)c(O)c1)[C@@H](O)C2` [Procyanidin B3 (2), procyanidin B3], the “HPLC peak area after incubation with human recombinant aldose reductase vs without” value in assay [1] is given as “decreased”. For the same compound, the inhibition (as a rule, the drop in the measured response relative to a control, in per cent) at 10 µg/mL in assay [2] (isolated compounds) was found to be 44.6 ± 1.99%.
`O=c1c(O)c(-c2ccc(O)c(O)c2)oc2cc(O)cc(O)c12` [Quercetin, quercetin, reference compound] came in with an inhibition at 10 µg/mL in assay [2] (extracts and fractions) of 81.6 ± 3.81%.
As to `O=C(O)c1cc(O)c(O)c(O)c1` [Gallic acid (1), gallic acid], the “HPLC peak area after incubation with human recombinant aldose reductase vs without” value in assay [1] was “decreased”. The midpoint of inhibition in assay [2] (IC50, isolated compounds), the IC50, lay at 11.5 ± 1.82 µM. The inhibition at 10 µg/mL in assay [2] (isolated compounds) turned out to be 80.2 ± 1.56%.
As for `Oc1cc(O)c2c(c1)O[C@H](c1ccc(O)c(O)c1)[C@@H](O)C2` [Catechin (3), catechin], in assay [1], the “HPLC peak area after incubation with human recombinant aldose reductase vs without” value is given as “decreased”. Besides, the concentration for half-maximal inhibition (IC50) (in general, the concentration needed to halve the response being measured) in assay [2] (isolated compounds, read-out: IC50) was determined as 14.8 ± 3.17 µM. This compound displayed an inhibition at 10 µg/mL in assay [2] (isolated compounds) of 69.6 ± 1.99%.
Take `COC(=O)c1cc(O)c(O)c(O)c1` [Methyl gallate (4), methyl gallate]: the “HPLC peak area after incubation with human recombinant aldose reductase vs without” value in assay [1] was “decreased”. In addition, the inhibition at 10 µg/mL in assay [2] (isolated compounds) is 32.2 ± 0.97%.
